Values joined by “and” are separate entries in the source; they are usually repeats but may differ in a detail not shown here. Identical values can stand only once. One block for each compound: values may come before it.
Experiments:
[1] = instrument: DT, stepped-field
[2] = instrument: TW, calibrated with phosphatidylcholines (ESI+) and phosphatidylethanolamines (ESI-)
[3] = instrument: DT, single field, calibrated with Agilent tune mix (Agilent)
[4] = instrument: DT, stepped-field; remark: listed apart in the source

- collision cross section (N2) ([2]; [M+Na]+): 297.4 Å²
- collision cross section (N2) ([2]; [M-H]-): 292.1 Å²
- collision cross section (N2) ([3]; [M+H]+): 302.3 Å²
- collision cross section (N2) ([3]; [M+NH4]+): 304 Å²
- collision cross section (N2) ([3]; [M-H]-): 292.9 Å²
- collision cross section (N2) ([1]; [M-H]-): 303.6 Å² and 300.7 Å²
Structure (SMILES): CC/C=C\C/C=C\C/C=C\C/C=C\CCCCC(=O)OC[C@H](COP(=O)(O)O[C@H]1C(O)C(O)C(O)[C@@H](O)C1O)OC(=O)CCCCCCCCCCCCCCCCCCC (some centres not stated) [PI(38:4)]

- collision cross section (N2) ([4]; [M+Na]+): 279.2 Å²
- collision cross section (N2) ([1]; [M-H]-): 270.4 Å²
Structure (SMILES): CC/C=C\C/C=C\C/C=C\C/C=C\C/C=C\CCCC(=O)O[C@H](COCCCCCCCCCCCCCCCC)COP(=O)(O)OCCN [PE(o36:5)]

- collision cross section (N2) ([4]; [M+Na]+): 285.7 Å²
- collision cross section (N2) ([2]; [M+H]+): 275.7 Å²
- collision cross section (N2) ([2]; [M-H]-): 267.4 Å²
- collision cross section (N2) ([3]; [M+H]+): 279.3 Å²
- collision cross section (N2) ([3]; [M+Na]+): 284.6 Å²
- collision cross section (N2) ([3]; [M-H]-): 268.5 Å²
- collision cross section (N2) ([1]; [M+H]+): 293 Å²
- collision cross section (N2) ([1]; [M-H]-): 276 Å² and 275.9 Å²
Structure (SMILES): CCCCC/C=C\C/C=C\CCCCCCCCCC(=O)O[C@H](COC(=O)CCCCCCCCCCCCCCC)COP(=O)(O)OCCN [PE(36:2)]

- collision cross section (N2) ([1]; [M-H]-): 273.5 Å²
Structure (SMILES): CCCCCCCCCCCCCCCC(=O)OC[C@H](COP(=O)(O)O[C@H]1C(O)C(O)C(O)[C@@H](O)C1O)OC(=O)CCCCCCCCCCC (some centres not stated) [PI(12:0/16:0)]

- collision cross section (N2) ([2]; [M+H]+): 286.8 Å²
- collision cross section (N2) ([2]; [M-H]-): 277.3 Å²
- collision cross section (N2) ([3]; [M+H]+): 288.1 Å²
- collision cross section (N2) ([3]; [M+Na]+): 293.3 Å²
- collision cross section (N2) ([3]; [M-H]-): 278.5 Å²
- collision cross section (N2) ([1]; [M-H]-): 287.9 Å² and 287.8 Å²
Structure (SMILES): CCCCC/C=C\C/C=C\CCCCCCCCCCCC(=O)O[C@H](COC(=O)CCCCCCC/C=C\C/C=C\CCCCC)COP(=O)(O)OCCN [PE(40:4)]

- collision cross section (N2) ([1]; [M+H]+): 283.8 Å²
Structure (SMILES): CCCCC/C=C\C/C=C\CCCCCCCC(=O)O[C@H](COC(=O)CCCCCCCCCCCCCCC)COP(=O)(O)OCCN [PE(16:1/18:1)]

- collision cross section (N2) ([3]; [M-H]-): 203.8 Å²
- collision cross section (N2) ([1]; [M-H]-): 201.1 Å²
Structure (SMILES): CCCCCC/C=C\CCCCCCCC(=O)OC[C@@H](O)COP(=O)(O)OCCN [LPE(16:1)]

Further lines, the compound ahead of its results:

Structure (SMILES): CC/C=C\C/C=C\C/C=C\C/C=C\C/C=C\CCCC(=O)O[C@H](COCCCCCCCCCCCCCCCC)COP(=O)([O-])OCC[N+](C)(C)C [PC(o36:5)]
- collision cross section (N2) ([1]; [M+H]+): 293.8 Å²

Structure (SMILES): CCCCC/C=C\C/C=C\CCCCCCCCCCCC(=O)O[C@H](COC(=O)CCCCCCCCCCC)COP(=O)(O)OC[C@H](N)C(=O)O [PS(16:1/18:1)]
- collision cross section (N2) ([1]; [M-H]-): 276.9 Å²

Structure (SMILES): CCCCCCCC/C=C\C/C=C\C/C=C\CCCC(=O)OC[C@H](COP(=O)([O-])OCC[N+](C)(C)C)OC(=O)CCCCCCCCCCCCC [PC(34:3)]
- collision cross section (N2) ([4]; [M+K]+): 292.4 Å²
- collision cross section (N2) ([2]; [M+H]+): 278.8 Å²
- collision cross section (N2) ([3]; [M+HCOO]-): 283.5 Å²
- collision cross section (N2) ([3]; [M+H]+): 281.8 Å²
- collision cross section (N2) ([1]; [M+H]+): 292.3 Å²

Structure (SMILES): CCCCCCCC/C=C\CCCCCCCCCC(=O)O[C@H](COC(=O)CCCCCCCCCCC)COP(=O)(O)O [PA(16:0/16:1)]
- collision cross section (N2) ([1]; [M-H]-): 251.8 Å²

Structure (SMILES): CCCCCCCC/C=C\CCCCCCCC(=O)OC[C@@H](O)COP(=O)(O)O [LPA(18:1)]
- collision cross section (N2) ([1]; [M-H]-): 198.8 Å²

Structure (SMILES): CCCCCCCCCC/C=C\CCCCCCCCCC(=O)O[C@H](COC(=O)CCCCCCCCCCCCCCCCC)COP(=O)(O)OC[C@H](N)C(=O)O [PS(40:1)]
- collision cross section (N2) ([1]; [M-H]-): 302.2 Å²

Structure (SMILES): CCCCC/C=C\C/C=C\CCCCCCCCCCCC(=O)O[C@H](COC(=O)CCCCCCC/C=C\CCCCCC)COP(=O)(O)O[C@H]1C(O)C(O)C(O)[C@@H](O)C1O (some centres not stated) [PI(38:3)]
- collision cross section (N2) ([2]; [M+Na]+): 298.5 Å²
- collision cross section (N2) ([2]; [M-H]-): 293 Å²
- collision cross section (N2) ([3]; [M+H]+): 304.2 Å²
- collision cross section (N2) ([3]; [M+NH4]+): 306 Å²
- collision cross section (N2) ([3]; [M+Na]+): 303.1 Å²
- collision cross section (N2) ([3]; [M-H]-): 293.7 Å²
- collision cross section (N2) ([1]; [M-H]-): 301.7 Å² and 303.9 Å²

Structure (SMILES): CCCCCC/C=C\CCCCCCCC(=O)OC[C@@H](O)COP(=O)(O)OC[C@@H](O)CO [LPG(16:1)]
- collision cross section (N2) ([1]; [M-H]-): 212 Å²

Structure (SMILES): CCCCC/C=C\C/C=C\CCCCCCCCCCCC(=O)O[C@H](COC(=O)CCCCCCC/C=C\CCCCCC)COP(=O)(O)OC[C@H](N)C(=O)O [PS(38:3)]
- collision cross section (N2) ([2]; [M-H]-): 281.7 Å²
- collision cross section (N2) ([1]; [M-H]-): 292.4 Å²

Structure (SMILES): CCCCCCC/C=C\CCCCCCCC(=O)O[C@H](COC(=O)CCCCCCCCCCCC)COP(=O)(O)O[C@H]1C(O)C(O)C(O)[C@@H](O)C1O (some centres not stated) [PI(14:0/16:1)]
- collision cross section (N2) ([1]; [M-H]-): 278.4 Å²
